Experimental data as given in patent US6716987B1, “Derivatives of benzofuran or benzodioxazole compounds” (Kyowa Hakko Kogyo Co., Ltd., priority 1995, dated 2004).
pIC50: −log10 of the molar value.

Key:
[1] = tested on: cAMP-specific phosphodiesterase (PDE IV); assay: Inhibition of the PDE IV enzyme derived from a dog trachea; format: biochemical; conditions: test compound 10^−6 M; PDE IV from dog tracheal smooth muscle; substrate cAMP 1 μM
Outline: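 Enzyme purified from dog tracheal smooth muscle; [3H]cAMP substrate at 1 μM final in 50 mM BES pH 7.2, 1 mM MgCl2, 0.1 mg/ml soybean trypsin inhibitor, 30° C for 10–30 min, 1.7% DMSO final. After HCl stop, product converted to adenosine by 5′-nucleotidase, separated on DEAE-Sephadex and scintillation-counted.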

[2] = tested on: guinea pig bronchial smooth muscle; assay: Suppression of passive Schultz-Dale response in guinea pig bronchial smooth muscle; conditions: Cavia porcellus; ovalbumin-induced constriction of passively sensitized guinea pig tracheal strips; read-out: IC50 (concentration causing 50% relaxation)
Protocol: For passive sensitization, rabbit anti-ovalbumin serum prepared by the method of Kohda et al. [Nichiyakurishi, 66, 237 (1970)] was peritoneally administered to male Hartley guinea pigs weighing 350 to 500 g, and 24 hours later the tracheae thereof were removed to be used for the experiment. Zig-zag strips were prepared from the tracheae in accordance with the method of Emmerson and Mackay [J. Pharm. Pharmacol., 31, 798 (1979)], and they were suspended in a Krebs-Henseleit solution with aeration of a mixture of 95% oxygen and 5% carbon dioxide at 37° C. After stabilizing for approximately one hour, ovalbumin, as the antigen, was added to the mixture (at a final concentration of […]), and the constriction of the muscle was recorded by a recorder (TYPE 3066; Yokokawa Hokushin Denki) via an isotonic transducer (TD-112S; Nippon Koden). A test compound was cumulatively added to the mixture after the constriction had reached the plateau, and the relaxation ratio was determined. The concentration (IC50) causing 50% relaxation was calculated by linear regression analysis.

[3] = tested on: histamine-induced bronchoconstriction; assay: Suppression of histamine-induced bronchoconstriction response in guinea pig; format: in vivo; conditions: intravenous administration; histamine 10 μg/kg iv
Protocol: This test was carried out by a modified Konzett and Rossler method. Under anesthesia with urethane (1.2 g/kg, ip), male Hartley guinea pigs (body weight: 500 to 600 g) were fixed on plates by strings. After undertaking a tracheotomy, cannulae were inserted to the tracheae, right carotid arteries, and left cervical veins. The spontaneous respiration of the guinea pigs was stopped by the administration of gallamie (10 mg/kg) from the left cervical veins via the cannulae. The cannulae inserted into the tracheae were connected to a bronchospasm transducer (Ugo Basile) and a respirator (TB-101, Takashima-shoten, 60 to 70 strokes/minutes, output: 5 cc) and the air overflow volume was recorded by a polygraph (RM-45, Nippon Koden) to measure the amount of bronchoconstriction. For measuring blood pressure, the cannulae inserted in the right carotid arteries were connected to a blood-pressure transducer. Constant bronchoconstriction occurred when histamine (10 μg/kg, iv) was administered at 3 minutes intervals, and the induced bronchoconstriction was used as the control. A test compound was intravenously administered, and one minute later histamine (10 μg/kg, iv) was administered. The test compound was cumulatively administered at 5 minutes intervals, and the bronchoconstriction in control and that after the administration of the test compound was compared.

[4] = tested on: anaphylactic bronchoconstriction; assay: Effect on anaphylactic bronchoconstriction response; format: in vivo, guinea pig; conditions: oral administration one hour before the antigen; from AUC suppression ratio
Protocol: For passive sensitization, 1 ml of rabbit anti-ovalbumine serum was peritoneally administered to male Hartley guinea pigs, and 16 to 24 hours later, ovalbumine was intravenously administered as the antigen. The induced anaphylactic bronchoconstriction was measured by the modified Konzett and Rossler method. Each of the tracheal cannulae was completely closed at the end of the measurement and the measured constriction was defined as the maximum constriction. Changes in the constriction were measured as percentage in the maximum constriction. The area under the curve (AUC) indicating the strength of the response was calculated by an image analyzer (MCID system, Imaging Research Company). The test compound was orally administered one hour before the antigen administration, and the ID50 value of each drug was calculated from the AUC suppression ratio by linear regression analysis.

phosphodiesterase 4A = target: T1, phosphodiesterase 4A (Homo sapiens, UniProt P27815); assay: Recombinant human PDE4A assay; format: biochemical
T1 construct: made in house; host or cells: E. coli
T1 sequence (P27815 224-886 limits assumed): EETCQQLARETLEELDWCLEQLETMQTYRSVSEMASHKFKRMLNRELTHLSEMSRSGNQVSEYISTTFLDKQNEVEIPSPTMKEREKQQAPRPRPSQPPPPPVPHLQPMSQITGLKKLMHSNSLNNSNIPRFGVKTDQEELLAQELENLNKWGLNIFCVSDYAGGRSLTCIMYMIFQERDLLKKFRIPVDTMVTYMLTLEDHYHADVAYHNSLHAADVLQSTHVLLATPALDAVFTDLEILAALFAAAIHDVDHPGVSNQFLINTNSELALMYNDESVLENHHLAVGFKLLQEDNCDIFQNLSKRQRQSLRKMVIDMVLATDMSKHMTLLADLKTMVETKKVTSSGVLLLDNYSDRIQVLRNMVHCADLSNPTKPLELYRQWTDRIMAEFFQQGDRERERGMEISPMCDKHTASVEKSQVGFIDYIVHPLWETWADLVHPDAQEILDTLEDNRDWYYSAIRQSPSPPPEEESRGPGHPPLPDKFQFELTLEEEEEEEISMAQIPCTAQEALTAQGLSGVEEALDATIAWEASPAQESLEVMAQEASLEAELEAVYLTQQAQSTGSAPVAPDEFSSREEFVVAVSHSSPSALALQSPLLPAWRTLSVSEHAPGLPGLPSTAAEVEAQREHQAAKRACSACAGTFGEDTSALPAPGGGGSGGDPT

Row | Compound | Enzyme Inhibitory Activity (%, 10^−6 M) [1] | melting point | pIC50 [2] | ID50 value (50% inhibitory dose) [3] | ID50 value (50% inhibitory dose) [4] | Enzyme Inhibitory Activity (%, 10^−7 M) (phosphodiesterase 4A)
1 | COc1ccc(/C=C/c2ccncc2)c2c1OC(C)(C)C2 [Compound 68, (E)-7-Methoxy-2,2-dimethyl-4-[2-(4-pyridyl)ethenyl]-2,3-dihydrobenzofuran] | 80% | 145 to 149 °C | 5.80 | 0.076 mg/kg |  | 
2 | COc1ccc(C(=O)Cc2ccncc2)c2c1OC1(CCCC1)C2.Cl [Compound 100, 7-Methoxy-4-[1-oxo-2-(4-pyridyl)ethyl]-spiro[2,3-dihydrobenzofuran-2,1′-cyclopentane].hydrochloride] |  |  |  |  | 0.53 mg/kg | 99%
